The record followed here is ChEMBL document CHEMBL4765466, “Recent Advances in the Development of PD-L1 Modulators: Degraders, Downregulators, and Covalent Inhibitors” (J Med Chem, 2020).

For orientation: logP means a log measure of how a compound divides between an organic and an aqueous phase. Read a low logP as lower lipophilicity.

The nature of this data set: Lipophilicity, log P of the compound. The settings on record: octanol/water. Format: physicochemical.

In the case of `COc1nc(OCc2cccc(-c3ccccc3)c2C)ccc1CNCCNC(C)=O`, the logP stood at 4.4.
